Reference: ChEMBL document CHEMBL1649202, “Temporal trends of antimicrobial resistance and clonality of invasive Streptococcus pneumoniae isolates in Finland, 2002 to 2006” (2009)
In brackets after ≈: the same amount, converted by molar mass.

How the values were obtained:
Type in all cases: functional
Streptococcus pneumoniae [1] = test: Antimicrobial activity against Streptococcus pneumoniae serotype 9V ST 156 harboring ERY-resistant erm(B) or mef(E) gene by agar plate dilution method
Streptococcus pneumoniae [2] = test: Antimicrobial activity against Streptococcus pneumoniae serotype 14 ST 156 harboring ERY-resistant mef(E) gene by agar plate dilution method
Streptococcus pneumoniae [3] = test: Antimicrobial activity against Streptococcus pneumoniae serotype 19F ST 156 by agar plate dilution method
Streptococcus pneumoniae [4] = test: Antimicrobial activity against Streptococcus pneumoniae serotype 14 ST 2918 by agar plate dilution method
Streptococcus pneumoniae [5] = test: Antimicrobial activity against Streptococcus pneumoniae serotype 14 ST 3247 by agar plate dilution method
Streptococcus pneumoniae [6] = test: Antimicrobial activity against Streptococcus pneumoniae serotype 19F ST 671 by agar plate dilution method
Streptococcus pneumoniae [7] = test: Antimicrobial activity against Streptococcus pneumoniae serotype 19F ST 236 by agar plate dilution method
Streptococcus pneumoniae [8] = test: Antimicrobial activity against Streptococcus pneumoniae serotype 19F ST 271 harboring ERY-resistant erm(B) and mef(E) gene by agar plate dilution method
Streptococcus pneumoniae [9] = test: Antimicrobial activity against Streptococcus pneumoniae serotype 19F ST 2694 harboring ERY-resistant mef(E) gene by agar plate dilution method
Streptococcus pneumoniae [10] = test: Antimicrobial activity against Streptococcus pneumoniae serotype 19F ST 3245 by agar plate dilution method
Streptococcus pneumoniae [11] = test: Antimicrobial activity against Streptococcus pneumoniae serotype 23F ST 81 harboring ERY-resistant mef(E) gene by agar plate dilution method
Streptococcus pneumoniae [12] = test: Antimicrobial activity against Streptococcus pneumoniae serotype 23F ST 3250 by agar plate dilution method
Streptococcus pneumoniae [13] = test: Antimicrobial activity against Streptococcus pneumoniae serotype 14 ST 13 harboring ERY-resistant mef(E) gene by agar plate dilution method
Streptococcus pneumoniae [14] = test: Antimicrobial activity against Streptococcus pneumoniae serotype 18C ST 496 harboring ERY-resistant erm(B) gene by agar plate dilution method
Streptococcus pneumoniae [15] = test: Antimicrobial activity against Streptococcus pneumoniae serotype 4 ST 205 by agar plate dilution method
Streptococcus pneumoniae [16] = test: Antimicrobial activity against Streptococcus pneumoniae serotype 6B ST 138 by agar plate dilution method
Streptococcus pneumoniae [17] = test: Antimicrobial activity against Streptococcus pneumoniae serotype 10 ST 461 by agar plate dilution method
Streptococcus pneumoniae [18] = test: Antimicrobial activity against Streptococcus pneumoniae serotype 17 ST 3248 by agar plate dilution method
Streptococcus pneumoniae [19] = test: Antimicrobial activity against Streptococcus pneumoniae serotype 6B ST 3249 by agar plate dilution method
Streptococcus pneumoniae [20] = test: Antimicrobial activity against Streptococcus pneumoniae serotype 14 ST 143 harboring ERY-resistant erm(B) gene by agar plate dilution method
Streptococcus pneumoniae [21] = test: Antimicrobial activity against Streptococcus pneumoniae serotype 23F ST 961 harboring ERY-resistant erm(B) gene by agar plate dilution method
Streptococcus pneumoniae [22] = test: Antimicrobial activity against Streptococcus pneumoniae serotype 6B ST 90 harboring ERY-resistant erm(B) gene by agar plate dilution method
Streptococcus pneumoniae [23] = test: Antimicrobial activity against Streptococcus pneumoniae serotype 14 ST 2306 harboring ERY-resistant erm(B) gene by agar plate dilution method
Streptococcus pneumoniae [24] = test: Antimicrobial activity against Streptococcus pneumoniae serotype 14 ST 2916 harboring ERY-resistant erm(B) gene by agar plate dilution method
Streptococcus pneumoniae [25] = test: Antimicrobial activity against Streptococcus pneumoniae serotype 19F ST 2917 harboring ERY-resistant erm(B) and mef(E) gene by agar plate dilution method
Streptococcus pneumoniae [26] = test: Antimicrobial activity against Streptococcus pneumoniae serotype 6B ST 3246 harboring ERY-resistant erm(B) gene by agar plate dilution method
Streptococcus pneumoniae [27] = test: Antimicrobial activity against Streptococcus pneumoniae serotype 14 ST 2678 harboring ERY-resistant erm(B) gene by agar plate dilution method

CC[C@H]1OC(=O)[C@H](C)[C@@H](O[C@H]2C[C@@](C)(OC)[C@@H](O)[C@H](C)O2)[C@H](C)[C@@H](O[C@@H]2O[C@H](C)C[C@H](N(C)C)[C@H]2O)[C@](C)(O)C[C@@H](C)C(=O)[C@H](C)[C@@H](O)[C@]1(C)O [ERYTHROMYCIN]
MIC (Streptococcus pneumoniae [1]): > 0.063 µg/mL
MIC (Streptococcus pneumoniae [2]): 0.125 µg/mL (≈ 0.17 µM)
MIC (Streptococcus pneumoniae [3]): 0.125 µg/mL (≈ 0.17 µM)
MIC (Streptococcus pneumoniae [4]): > 128 µg/mL
MIC (Streptococcus pneumoniae [5]): > 128 µg/mL
MIC (Streptococcus pneumoniae [6]): 32 µg/mL (≈ 43.6 µM)
MIC (Streptococcus pneumoniae [7]): 8 µg/mL (≈ 10.9 µM)
MIC (Streptococcus pneumoniae [8]): > 128 µg/mL
MIC (Streptococcus pneumoniae [9]): 8 µg/mL (≈ 10.9 µM)
MIC (Streptococcus pneumoniae [10]): > 128 µg/mL
MIC (Streptococcus pneumoniae [11]): 0.125 µg/mL (≈ 0.17 µM)
MIC (Streptococcus pneumoniae [12]): > 128 µg/mL
MIC (Streptococcus pneumoniae [13]): 16 µg/mL (≈ 21.8 µM)
MIC (Streptococcus pneumoniae [14]): > 128 µg/mL
MIC (Streptococcus pneumoniae [15]): 32 µg/mL (≈ 43.6 µM)
MIC (Streptococcus pneumoniae [16]): 16 µg/mL (≈ 21.8 µM)
MIC (Streptococcus pneumoniae [17]): > 128 µg/mL
MIC (Streptococcus pneumoniae [18]): > 128 µg/mL
MIC (Streptococcus pneumoniae [19]): > 128 µg/mL

CN(C)[C@@H]1C(O)=C(C(N)=O)C(=O)[C@@]2(O)C(O)=C3C(=O)c4c(O)cccc4[C@@](C)(O)[C@H]3C[C@@H]12 [TETRACYCLINE]
MIC (Streptococcus pneumoniae [1]): 0.25 µg/mL (≈ 0.563 µM)
MIC (Streptococcus pneumoniae [2]): 0.25 µg/mL (≈ 0.563 µM)
MIC (Streptococcus pneumoniae [3]): 0.25 µg/mL (≈ 0.563 µM)
MIC (Streptococcus pneumoniae [4]): 0.5 µg/mL (≈ 1.13 µM)
MIC (Streptococcus pneumoniae [20]): 0.25 µg/mL (≈ 0.563 µM)
MIC (Streptococcus pneumoniae [6]): 0.5 µg/mL (≈ 1.13 µM)
MIC (Streptococcus pneumoniae [8]; read-out: MIC): 16 µg/mL (≈ 36 µM)
MIC (Streptococcus pneumoniae [11]): 1 µg/mL (≈ 2.25 µM)
MIC (Streptococcus pneumoniae [21]): 0.25 µg/mL (≈ 0.563 µM)
MIC (Streptococcus pneumoniae [12]): 16 µg/mL (≈ 36 µM)
MIC (Streptococcus pneumoniae [22]): 0.5 µg/mL (≈ 1.13 µM)
MIC (Streptococcus pneumoniae [13]): 0.25 µg/mL (≈ 0.563 µM)
MIC (Streptococcus pneumoniae [14]; read-out: MIC): 0.25 µg/mL (≈ 0.563 µM)
MIC (Streptococcus pneumoniae [15]): 1 µg/mL (≈ 2.25 µM)
MIC (Streptococcus pneumoniae [16]): 0.25 µg/mL (≈ 0.563 µM)

CC1(C)S[C@@H]2[C@H](NC(=O)Cc3ccccc3)C(=O)N2[C@H]1C(=O)O [PENICILLIN G]
MIC (Streptococcus pneumoniae [1]): 2 µg/mL (≈ 5.98 µM)
MIC (Streptococcus pneumoniae [2]): 2 µg/mL (≈ 5.98 µM)
MIC (Streptococcus pneumoniae [3]): 2 µg/mL (≈ 5.98 µM)
MIC (Streptococcus pneumoniae [4]): 2 µg/mL (≈ 5.98 µM)
MIC (Streptococcus pneumoniae [23]): 2 µg/mL (≈ 5.98 µM)
MIC (Streptococcus pneumoniae [5]): 2 µg/mL (≈ 5.98 µM)
MIC (Streptococcus pneumoniae [20]): 2 µg/mL (≈ 5.98 µM)
MIC (Streptococcus pneumoniae [24]): 2 µg/mL (≈ 5.98 µM)
MIC (Streptococcus pneumoniae [6]): 2 µg/mL (≈ 5.98 µM)
MIC (Streptococcus pneumoniae [7]): 2 µg/mL (≈ 5.98 µM)
MIC (Streptococcus pneumoniae [8]; read-out: MIC): 2 µg/mL (≈ 5.98 µM)
MIC (Streptococcus pneumoniae [9]): 2 µg/mL (≈ 5.98 µM)
MIC (Streptococcus pneumoniae [25]): 2 µg/mL (≈ 5.98 µM)
MIC (Streptococcus pneumoniae [10]): 4 µg/mL (≈ 12 µM)
MIC (Streptococcus pneumoniae [11]): 2 µg/mL (≈ 5.98 µM)
MIC (Streptococcus pneumoniae [21]): 2 µg/mL (≈ 5.98 µM)
MIC (Streptococcus pneumoniae [12]): 2 µg/mL (≈ 5.98 µM)
MIC (Streptococcus pneumoniae [22]): 2 µg/mL (≈ 5.98 µM)
MIC (Streptococcus pneumoniae [26]): 2 µg/mL (≈ 5.98 µM)
MIC (Streptococcus pneumoniae [13]): 2 µg/mL (≈ 5.98 µM)
MIC (Streptococcus pneumoniae [27]): 2 µg/mL (≈ 5.98 µM)
MIC (Streptococcus pneumoniae [14]; read-out: MIC): 2 µg/mL (≈ 5.98 µM)
MIC (Streptococcus pneumoniae [15]): 2 µg/mL (≈ 5.98 µM)
MIC (Streptococcus pneumoniae [16]): 4 µg/mL (≈ 12 µM)
MIC (Streptococcus pneumoniae [17]): 2 µg/mL (≈ 5.98 µM)
MIC (Streptococcus pneumoniae [18]): 2 µg/mL (≈ 5.98 µM)
MIC (Streptococcus pneumoniae [19]): 2 µg/mL (≈ 5.98 µM)
